Source: publication PMC4995097, “Talin-KANK1 interaction controls the recruitment of cortical microtubule stabilizing complexes to focal adhesions” (eLife, 2016)

Columns and labels:
[1] = system: LL5β at the cell edge of HeLa cells; assay: Peripheral clustering of LL5β; assay type: cell-based, human
Method: (§1) HeLa Kyoto cell line was described previously ([Lansbergen et al., 2006]; [Mimori-Kiyosue et al., 2005]). HEK293T cells were purchased from ATCC; culture and transfection of DNA and siRNA into these cell lines was performed as previously described ([van der Vaart et al., 2013]). HaCaT cells were purchased at Cell Line Service (Eppelheim, Germany) and cultured according to manufacturer’s instructions. The cell lines were routinely checked for mycoplasma contamination using LT07-518 Mycoalert assay (Lonza, Switzerland).The identity of the cell lines was monitored by immunofluorescence-staining-based analysis with multiple markers. Blebbistatin was purchased from Enzo Life Sciences and used at 50 μM. Serum starvation in HeLa cells was done for 48 hr and focal adhesion assembly was stimulated by incubation with fetal calf serum-containing medium with or without blebbistatin for 2 hr. ROCK1 inhibitor Y-27632 was purchased at Sigma-Aldrich and used at 1 or 10 μM. Double stable HeLa cell line expressing GFP-KANK1 and TagRFP-paxillin was made by viral infection. We used a pLVIN-TagRFP-paxillin-based lentivirus and a pQC-GFP-KANK1-based retrovirus packaged in HEK293T cells using respectively Lenti-X HTX packaging and pCL-Ampho vectors. Antibiotic selection was applied to cells 48 hr after infection using 500 μg/ml G418 (Geneticin, Life Technologies) and 1 μg/ml puromycin (InvivoGen).
(§2) Antibodies against HA and GFP tags, and liprin β1 used for Western blot analysis were previously described ([van der Vaart et al., 2013]). Rabbit antibodies against KANK1 (HPA005539) and KANK2 (HPA015643) were purchased at Sigma-Aldrich. Western blot analysis of KANK1 was performed using rabbit polyclonal KANK1 antibody (A301-882A) purchased at Bethyl Laboratories. Talin immunofluorescence staining was performed using mouse monoclonal 8d4 antibody (Sigma-Aldrich). Western blot analysis of talin 1 and 2 expression was performed using respectively the isotype specific mouse monoclonal 97H6 (Sigma-Aldrich) and 68E7 (Abcam) antibodies. Ku80 (7/Ku80) antibody was purchased from BD Biosciences. Immunofluorescence staining of KANK1, LL5β, liprin β1, KIF21A and CLASP2 in HeLa and HaCaT cells was performed using the antibodies and procedures previously described ([Lansbergen et al., 2006]; [van der Vaart et al., 2013]). F-actin was stained using Alexa Fluor 594-conjugated phalloidin (Life Technologies). Phospho-tyrosine mouse antibody (PT-66) was purchased from Sigma-Aldrich and rabbit FAK phospho-tyrosine 397 was purchased from Biosource.
Fixed samples and corresponding immunofluorescence images were acquired using widefield fluorescence illumination on a Nikon Eclipse 80i or Ni upright microscope equipped with a CoolSNAP HQ2 CCD camera (Photometrics) or a DS-Qi2 camera (Nikon) an Intensilight C-HGFI precentered fiber illuminator (Nikon), ET-DAPI, ET-EGFP and ET-mCherry filters (Chroma), Nikon NIS Br software, Plan Apo VC 100x NA 1.4 oil, Plan Apo Lambda 100X oil NA 1.45 and Plan Apo VC 60x NA 1.4 oil (Nikon) objectives. […]

[2] = system: focal adhesions in HeLa cells; assay: FA number; assay type: cell-based, human
Method: as §1
(§3) For presentation, images were adjusted for brightness and processed by Gaussian blur and Unsharp mask filter using ImageJ 1.47v (NIH). Fluorescence profiles are values measured by line scan analysis in ImageJ, normalized by background average fluorescence, expressed as a factor of the baseline value obtained for individual channel and plotted as a function of maximum length factor of the selection line (distance ratio). Protein clustering at the cell edge is the ratio of the total fluorescence in the first 5 μm from the cell edge to the next 5 μm measured by line scan analysis in ImageJ after thresholding for cell outline marking and out-of-cell region value assigned to zero. The results were plotted as percentage of control condition average value. FA counting and area measurement was performed using Analyze Particles under ImageJ on focal adhesion binary mask obtained after Gaussian blur/threshold-based cell outline marking and background subtraction (rolling ball radius, 10 pixels). KANK1/talin colocalization was analyzed using Pearson R value provided by Colocalization Analysis plugin under FiJi-ImageJ and a 3 μm diameter circular ROI centered on talin clusters detected by immunofluorescent staining.

[3] = system: KANK1 at the cell edge of HeLa cells; assay: Peripheral clustering of KANK1; assay type: cell-based, human
Method: as §1, §2
Fixed samples and corresponding immunofluorescence images were acquired using widefield fluorescence illumination on a Nikon Eclipse 80i or Ni upright microscope equipped with a CoolSNAP HQ2 CCD camera (Photometrics) or a DS-Qi2 camera (Nikon) an Intensilight C-HGFI precentered fiber illuminator (Nikon), ET-DAPI, ET-EGFP and ET-mCherry filters (Chroma), Nikon NIS Br software, Plan Apo VC 100x NA 1.4 oil, Plan Apo Lambda 100X oil NA 1.45 and Plan Apo VC 60x NA 1.4 oil (Nikon) objectives. TIRFM-based live cell imaging was performed using the setup described before ([van der Vaart et al., 2013]) or a similar Nikon Ti microscope-based Ilas^2 system (Roper Scientific, Evry, FRANCE) equipped with dual laser illuminator for azimuthal spinning TIRF (or Hilo) illumination, 150 mW 488 nm laser and 100 mW 561 nm laser, 49,002 and 49,008 Chroma filter sets, EMCCD Evolve mono FW DELTA 512x512 camera (Roper Scientific) with the intermediate lens 2.5X (Nikon C mount adapter 2.5X), CCD camera CoolSNAP MYO M-USB-14-AC (Roper Scientific) and controlled with MetaMorph 7.8.8 software (Molecular Devices). Simultaneous imaging of […] was performed as described before ([van der Vaart et al., 2013]) or using the Optosplit III image splitter device (Andor) on the Ilas^2 system.
For presentation, images were adjusted for brightness and processed by Gaussian blur and Unsharp mask filter using ImageJ 1.47v (NIH). […]

[4] = system: KANK1/talin in HeLa cells; assay: KANK1 and talin colocalization (Pearson R); assay type: cell-based, human
Method: as §1, with “We used a pLVIN-TagRFP-paxillin-based lentivirus and a pQC-GFP-KANK1-based retrovirus packaged in HEK293T cells using respectively Lenti-X HTX packaging and pCL-Ampho vectors. Antibiotic selection was applied to cells 48 hr after infection using 500 μg/ml G418 (Geneticin, Life Technologies) and 1 μg/ml puromycin (InvivoGen).” left out
as §3, with “The results were plotted as percentage of control condition average value. FA counting and area measurement was performed using Analyze Particles under ImageJ on focal adhesion binary mask obtained after Gaussian blur/threshold-based cell outline marking and background subtraction (rolling ball radius, 10 pixels).” left out

[5] = system: focal adhesions in HeLa cells; assay: FA area; assay type: cell-based, human; conditions: Y-27632, HeLa
Method: HeLa Kyoto cell line was described previously ([Lansbergen et al., 2006]; [Mimori-Kiyosue et al., 2005]). HEK293T cells were purchased from ATCC; culture and transfection of DNA and siRNA into these cell lines was performed as previously described ([van der Vaart et al., 2013]). HaCaT cells were purchased at Cell Line Service (Eppelheim, Germany) and cultured according to manufacturer’s instructions. The cell lines were routinely checked for mycoplasma contamination using LT07-518 Mycoalert assay (Lonza, Switzerland).The identity of the cell lines was monitored by immunofluorescence-staining-based analysis with multiple markers. Blebbistatin was purchased from Enzo Life Sciences and used at 50 μM. […]
For presentation, images were adjusted for brightness and processed by Gaussian blur and Unsharp mask filter using ImageJ 1.47v (NIH). Fluorescence profiles are values measured by line scan analysis in ImageJ, normalized by background average fluorescence, expressed as a factor of the baseline value obtained for individual channel and plotted as a function of maximum length factor of the selection line (distance ratio). Protein clustering at the cell edge is the ratio of the total fluorescence in the first 5 μm from the cell edge to the next 5 μm measured by line scan analysis in ImageJ after thresholding for cell outline marking and out-of-cell region value assigned to zero. […]

Talin1 R7-R8 (1357–1659) = biological target: T1, Talin1 R7-R8 (1357–1659) (Mus musculus, UniProt P26039); assay: Fluorescence polarization binding of BODIPY-labeled KANK peptides to talin1 R7-R8; set-up: species or system murine; conditions: Fluorescence polarization; 0.5 μM BODIPY TMR-labeled peptide, increasing talin R7-R8, PBS, room temperature; one site total and non-specific binding; ± SE, triplicate; panel F; read-out: Dissociation constant (Kd), Fig. 2F
T1 construct: peptides to Talin1 R7-R8 (1357–1659) was measured using a Fluorescence Polarization assay; His-tag (cleaved yes); made in house; host or cells: E. coli BL21(DE3)

R7-R8 S1641E = biological target: T2, R7-R8 S1641E (Mus musculus, UniProt P26039, S1641E); assay: Fluorescence polarization binding to talin1 R7-R8 S1641E; set-up: species or system murine; conditions: 0.5 μM BODIPY TMR-labeled peptide, PBS, room temperature, ± SE, triplicate, panel G, read-out: Dissociation constant (Kd), S1641E
T2 construct: His-tag (cleaved yes); made in house; host or cells: E. coli BL21(DE3)
Text: The cDNAs encoding murine talin1 residues 1357–1653 (R7-R8), 1357–1653 Δ1454–1586 (R7) and 1461–1580 (R8) were synthesized by PCR using a mouse talin1 cDNA as template and cloned into the expression vector pet151-TOPO (Invitrogen) ([Gingras et al., 2010]). Talin mutants were synthesized by GeneArt. Talin polypeptides were expressed in E. coli BL21(DE3) cultured either in LB for unlabeled protein, or in M9 minimal medium for the preparation of isotopically labeled samples for NMR. Recombinant His-tagged talin polypeptides were purified by nickel-affinity chromatography following standard procedures. The His-tag was removed by cleavage with AcTEV protease (Invitrogen), and the proteins were further purified by anion-exchange. Protein concentrations were determined using their respective extinction coefficient at 280 nm.
KANK peptides with a C-terminal cysteine residue were synthesized by Biomatik (USA):
Fluorescence Polarization was carried out on KANK peptides with a carboxy terminal cysteine. […]
The Fluorescence Polarization assay was carried out on a black 96well plate (Nunc). […] Fluorescence Polarization measurements were recorded on a BMGLabTech CLARIOstar plate reader at room temperature and analyzed using GraphPad Prism (version 6.07). Kd values were calculated with a nonlinear curve fitting using a one site total and non-specific binding model.

T2 sequence (P26039 1357-1659 S1641E): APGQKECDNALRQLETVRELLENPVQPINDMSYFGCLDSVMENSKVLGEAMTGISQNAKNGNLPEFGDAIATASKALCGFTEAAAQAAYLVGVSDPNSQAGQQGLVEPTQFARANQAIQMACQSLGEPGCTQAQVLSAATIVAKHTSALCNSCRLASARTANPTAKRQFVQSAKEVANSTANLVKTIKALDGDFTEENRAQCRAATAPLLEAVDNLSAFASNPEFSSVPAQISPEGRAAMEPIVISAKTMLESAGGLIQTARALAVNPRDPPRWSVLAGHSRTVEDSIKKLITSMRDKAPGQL
T1 sequence (P26039 1357-1659): as the sequence (P26039 1357-1659 S1641E) above, with E285S counted along it

Cc1ccc2c(c1)C(=O)C1(O)CCN(c3ccccc3)C1=N2 (stereo not shown) [blebbistatin, reference compound]
Peripheral clustering of LL5β, percentage of control, average ([1]; blebbistatin 50 μM, FCS 2 h, mean, n = 30, SEM 4.45772): 29.4558 percentage of control condition average value
clustering of CMSC components (in words) ([1]; blebbistatin, cell periphery): strong reduction in clustering of CMSC components at the cell periphery
FA effect of blebbistatin (in words) ([2]; HeLa and HaCaT context, myosin-II inhibition): FA disassembly

C[C@@H](N)[C@H]1CC[C@H](C(=O)Nc2ccncc2)CC1 [Y-27632]
Peripheral clustering of KANK1, edge ratio, AV, 1 uM ([3]; Y-27632 1 uM, 45 min, mean, n = 12, SEM 0.341991): 2.059
Peripheral clustering of KANK1, percentage of control, AV, 1 uM ([3]; Y-27632 1 uM, 45 min, mean, n = 12, SEM 6.6857): 40.2515 percentage of control condition average value
Peripheral clustering of KANK1, edge ratio, AV, 10 uM ([3]; Y-27632 10 uM, 45 min, mean, n = 12, SEM 0.374449): 2.344
Peripheral clustering of KANK1, percentage of control, AV, 10 uM ([3]; Y-27632 10 uM, 45 min, mean, n = 12, SEM 7.32023): 45.8254 percentage of control condition average value
CMSC clustering at the cell edge (in words) ([3]; Y-27632, HeLa): sufficient to diminish CMSC clustering at the cell edge
KANK1 and talin colocalization, Pearson R value, av, 1 uM ([4]; Y-27632 1 uM, mean, n = 30, sem 0.0310046, control 0.0606667): 0.496
KANK1 and talin colocalization, Pearson R value, av, 10 uM ([4]; Y-27632 10 uM, mean, n = 30, sem 0.0260316, control 0.0606667): 0.535
overlap of KANK1 with FA adhesion markers (in words) ([4]; Y-27632, HeLa): very significant increase in the overlap of KANK1 with FA adhesion markers
AV #FA (mean number of focal adhesions per cell) ([2]; HeLa, Y-27632 1 uM, 45 min, mean of 7 cells (SD 17.5499, SEM 6.63325)): 54
number of FAs (in words) ([2]; Y-27632, HeLa): the number of FAs was not affected
size of FAs (in words) [5]: their size was reduced

CC[C@H](C)[C@H](NC(=O)[C@H](CC(=O)O)NC(=O)[C@H](CC(=O)O)NC(=O)[C@@H](NC(=O)[C@H](Cc1ccc(O)cc1)NC(=O)[C@H](CCCCN)NC(=O)[C@@H](NC(=O)[C@H](Cc1ccccc1)NC(=O)[C@H](CC(=O)O)NC(=O)[C@H](CC(C)C)NC(=O)[C@H](CC(=O)O)NC(=O)[C@H](CC(C)C)NC(=O)[C@H](CCC(N)=O)NC(=O)[C@H](Cc1ccccc1)NC(=O)CNC(=O)[C@H](Cc1ccc(O)cc1)NC(=O)[C@@H]1CCCN1C(=O)[C@@H](NC(=O)[C@H](CCC(=O)O)NC(=O)[C@@H](NC(=O)[C@H](Cc1ccccc1)NC(=O)[C@H](Cc1ccc(O)cc1)NC(=O)[C@@H]1CCCN1)C(C)C)[C@@H](C)O)C(C)C)C(C)C)C(=O)N[C@@H](CCC(N)=O)C(=O)N[C@@H](CCCCN)C(=O)NCC(=O)N[C@@H](CC(N)=O)C(=O)N[C@H](C(=O)N[C@H](C(=O)N[C@@H](CCCCN)C(=O)N[C@@H](CCCCN)C(=O)N[C@@H](CS)C(=O)O)[C@@H](C)CC)[C@@H](C)O [KANK1(30–60)C]
Kd (Talin1 R7-R8 (1357–1659)): 0.8 ± 0.1 µM
Kd (R7-R8 S1641E): 2.1 ± 0.4 µM
